Measured values from patent US20110105474A1, “HETEROCYCLIC DERIVATIVES AS HDAC INHIBITORS” (DAC S.r.l., priority 2008, published 2011).
Counter-ions that a name gives are not always drawn.

Assays:
Assay type in all cases: cell-based
HCT-116 cells = experiment: Cell growth, CellTiter-Glo Luminescent Cell Viability Assay, HCT-116; details: Homo sapiens, 72 h incubation, read-out: IC50 HCT116
Text: (§1) CellTiter-Glo® Luminescent Cell Viability Assay (Promega) is a homogeneous method of determining the number of viable cells in culture based on quantitation of the present ATP, which indicates the presence of metabolically active cells. The homogeneous assay procedure involves addition of a single reagent (CellTiter-Glo®Reagent) directly to the cells, which leads to cell lysis and generation of a luminescent signal proportional to the amount of the ATP and the number of cells present in culture. The assay relies on the properties of a proprietary thermostable luciferase (Ultra-Glo® recombinant luciferase), which generates a luminescent signal.
(§2) K562, A549 and HCT-116 cells, in exponential growth, were incubated for 72 h with different concentrations of the inhibitors. After 72 h, a volume of CellTiter-Glo® Reagent equal to the volume of cell culture medium was added. The content was mixed for 2 min to induce cell lysis. The luminescence was recorded after further 10 min at RT in order to obtain a stabilized luminescent signal.
(§3) The IC50 was calculated using GraphPad Software.
(§4) IC50 results were allocated to one of 3 ranges as follows: Range A: IC50≦1.0 μM; Range B: from 1.0 to 3.0 μM; Range C: IC50≧3.0 μM.

A549 cells = experiment: Cell growth, CellTiter-Glo Luminescent Cell Viability Assay, A549; details: Homo sapiens, 72 h incubation
Text: as §1, §2, §3, §4

K562 cells = experiment: Cell growth, CellTiter-Glo Luminescent Cell Viability Assay, K562; details: Homo sapiens, 72 h incubation
Text: as §1, §2, §3, §4

Compound	IC50 (HCT-116 cells) [nM]	IC50 (A549 cells) [nM]	IC50 (K562 cells) [nM]
O=C(/C=C/c1cccc(/C=C/C(=O)N2CCCC(c3ccc(C(F)(F)F)cc3)C2)n1)NO (racemic) [Example 72, (±)-(E)-N-Hydroxy-3-(6-{(E)-3-oxo-3-[3-(4-trifluoromethyl-phenyl)-piperidin-1-yl]-propenyl}-pyridin-2-yl)-acrylamide hydrochloride]	1000 to 3000	1000 to 3000	≤ 1000
Cc1cccc(C2CCCN(C(=O)/C=C/c3cccc(/C=C/C(=O)NO)c3)C2)c1 (racemic) [Example 78, (±)-(E)-N-Hydroxy-3-{3-[(E)-3-oxo-3-(3-m-tolyl-piperidin-1-yl)-propenyl]-phenyl}-acrylamide]	≥ 3000	≥ 3000	≥ 3000
Cc1ccccc1C1CCCN(C(=O)/C=C/c2cccc(/C=C/C(=O)NO)c2)C1 (racemic) [Example 79, (±)-(E)-N-Hydroxy-3-{3-[(E)-3-oxo-3-(3-o-tolyl-piperidin-1-yl)-propenyl]-phenyl}-acrylamide]	≥ 3000	≥ 3000	≥ 3000
Cc1ccc(C2CCCN(C(=O)/C=C/c3cccc(/C=C/C(=O)NO)c3)C2)cc1 (racemic) [Example 80, (±)-(E)-N-Hydroxy-3-{3-[(E)-3-oxo-3-(3-p-tolyl-piperidin-1-yl)-propenyl]-phenyl}-acrylamide]	≥ 3000	≥ 3000	≥ 3000
O=C(/C=C/c1cccc(/C=C/C(=O)N2CCCC(c3ccccc3)C2)c1)NO (racemic) [Example 83, (±)-(E)-N-Hydroxy-3-{3-[(E)-3-oxo-3-(3-phenyl-piperidin-1-yl)-propenyl]-phenyl}-acrylamide]	≥ 3000	≥ 3000	≥ 3000
O=C(/C=C/c1cccc(/C=C/C(=O)N2CCCC(c3ccc(F)cc3)C2)c1)NO (racemic) [Example 84, (±)-(E)-3-(3-{(E)-3-[3-(4-Fluoro-phenyl)-piperidin-1-yl]-3-oxo-propenyl}-phenyl)-N-hydroxy-acrylamide]	≥ 3000	≥ 3000	≥ 3000
O=C(/C=C/c1cccc(/C=C/C(=O)N2CCN(c3ccccc3)CC2)c1)NO [Example 3, (E)-N-Hydroxy-3-{3-[(E)-3-oxo-3-(4-phenyl-piperazin-1-yl)-propenyl]-phenyl}-acrylamide]	≤ 1000	1000 to 3000	≤ 1000
O=C(/C=C/c1ccc(/C=C/C(=O)N2CCN(c3ccccc3)CC2)cc1)NO [Example 7, (E)-N-Hydroxy-3-{4-[(E)-3-oxo-3-(4-phenyl-piperazin-1-yl)-propenyl]-phenyl}-acrylamide]	≥ 3000	≥ 3000	≥ 3000
O=C(/C=C/c1ccc(/C=C/C(=O)N2CCN(c3ccccc3)CC2)cn1)NO [Example 11, (E)-N-Hydroxy-3-{5-[(E)-3-oxo-3-(4-phenyl-piperazin-1-yl)-propenyl]-pyridin-2-yl}-acrylamide]	1000 to 3000	≥ 3000	1000 to 3000
O=C(/C=C/c1cccc(/C=C/C(=O)N2CCN(c3ccccc3)CC2)n1)NO [Example 13, (E)-N-Hydroxy-3-{6-[(E)-3-oxo-3-(4-phenyl-piperazin-1-yl)-propenyl]-pyridin-2-yl}-acrylamide]	1000 to 3000	1000 to 3000	1000 to 3000
O=C(/C=C/c1cccc(/C=C/C(=O)N2CCN(c3cccc(Cl)c3)CC2)n1)NO [Example 15, (E)-3-(6-{(E)-3-[4-(3-Chloro-phenyl)-piperazin-1-yl]-3-oxo-propenyl}-pyridin-2-yl)-N-hydroxy-acrylamide]	1000 to 3000	≥ 3000	1000 to 3000
O=C(/C=C/c1cccc(/C=C/C(=O)N2CCN(C(=O)c3ccccc3)CC2)n1)NO [Example 16, (E)-3-{6-[(E)-3-(4-Benzoyl-piperazin-1-yl)-3-oxo-propenyl]-pyridin-2-yl}-N-hydroxy-acrylamide hydrochloride]	≥ 3000	≥ 3000	≥ 3000
O=C(/C=C/c1cccc(/C=C/C(=O)N2CCC(Cc3ccccc3)CC2)n1)NO [Example 17, (E)-3-{6-[(E)-3-(4-Benzyl-piperidin-1-yl)-3-oxo-propenyl]-pyridin-2-yl}-N-hydroxy-acrylamide hydrochloride]	1000 to 3000	1000 to 3000	1000 to 3000
O=C(/C=C/c1cccc(/C=C/C(=O)N2CCN(c3ccccc3Cl)CC2)n1)NO [Example 18, (E)-3-(6-{(E)-3-[4-(2-Chloro-phenyl)-piperazin-1-yl]-3-oxo-propenyl}-pyridin-2-yl)-N-hydroxy-acrylamide hydrochloride]	≤ 1000	1000 to 3000	1000 to 3000
O=C(/C=C/c1cccc(/C=C/C(=O)N2CCC(c3ccccc3)CC2)n1)NO [Example 19, (E)-N-Hydroxy-3-{6-[(E)-3-oxo-3-(4-phenyl-piperidin-1-yl)-propenyl]-pyridin-2-yl}-acrylamide hydrochloride]	1000 to 3000	1000 to 3000	1000 to 3000
O=C(/C=C/c1cccc(/C=C/C(=O)N2CCN(c3ncccn3)CC2)n1)NO [Example 20, (E)-N-Hydroxy-3{-6-[(E)-3-oxo-3-(4-pyrimidin-2-yl-piperazin-1-yl)-propenyl]-pyridin-2-yl}-acrylamide hydrochloride]	≥ 3000	≥ 3000	≥ 3000
O=C(/C=C/c1cccc(/C=C/C(=O)N2CCN(c3ccc(Cl)cc3)CC2)n1)NO [Example 21, (E)-3-(6-{(E)-3-[4-(4-Chloro-phenyl)-piperazin-1-yl]-3-oxo-propenyl}-pyridin-2-yl)-N-hydroxy-acrylamide hydrochloride]	≤ 1000	≤ 1000	≤ 1000
O=C(/C=C/c1cccc(/C=C/C(=O)N2CCN(Cc3ccccc3)CC2)n1)NO [Example 22, (E)-3-{6-[(E)-3-(4-Benzyl-piperazin-1-yl)-3-oxo-propenyl]-pyridin-2-yl}-N-hydroxy-acrylamide hydrochloride]	1000 to 3000	≥ 3000	1000 to 3000
O=C(/C=C/c1cccc(/C=C/C(=O)N2CCN(CCc3ccccc3)CC2)n1)NO [Example 23, (E)-N-Hydroxy-3-{6-[(E)-3-oxo-3-(4-phenethyl-piperazin-1-yl)-propenyl]-pyridin-2-yl}-acrylamide hydrochloride]	1000 to 3000	≥ 3000	1000 to 3000
O=C(/C=C/c1cccc(/C=C/C(=O)N2CCC(C(=O)c3ccccc3)CC2)n1)NO [Example 24, (E)-3-{6-[(E)-3-(4-Benzoyl-piperidin-1-yl)-3-oxo-propenyl]-pyridin-2-yl}-N-hydroxy-acrylamide hydrochloride]	1000 to 3000	≥ 3000	1000 to 3000
O=C(/C=C/c1cccc(/C=C/C(=O)N2CC=C(c3ccccc3)CC2)n1)NO [Example 26, (E)-N-Hydroxy-3-{6-[(E)-3-oxo-3-(4-phenyl-3,6-dihydro-2H-pyridin-1-yl)-propenyl]-pyridin-2-yl}-acrylamide hydrochloride]	≤ 1000	1000 to 3000	1000 to 3000
Cc1cccc(C)c1C1CCN(C(=O)/C=C/c2cccc(/C=C/C(=O)NO)n2)CC1 [Example 27, (E)-3-(6-{(E)-3-[4-(2,6-Dimethyl-phenyl)-piperidin-1-yl]-3-oxo-propenyl}-pyridin-2-yl)-N-hydroxy-acrylamide hydrochloride]	1000 to 3000	1000 to 3000	1000 to 3000
N#CC1(c2ccccc2)CCN(C(=O)/C=C/c2cccc(/C=C/C(=O)NO)n2)CC1 [Example 28, (E)-3-{6-[(E)-3-(4-Cyano-4-phenyl-piperidin-1-yl)-3-oxo-propenyl]-pyridin-2-yl}-N-hydroxy-acrylamide hydrochloride]	1000 to 3000	≥ 3000	1000 to 3000
O=C(/C=C/c1cccc(/C=C/C(=O)N2CCN(c3ccccn3)CC2)n1)NO [Example 29, (E)-N-Hydroxy-3-{6-[(E)-3-oxo-3-(4-pyridin-2-yl-piperazin-1-yl)-propenyl]-pyridin-2-yl}-acrylamide hydrochloride]	≥ 3000	≥ 3000	≥ 3000
Cc1cccc(C)c1N1CCN(C(=O)/C=C/c2cccc(/C=C/C(=O)NO)n2)CC1 [Example 31, (E)-3-(6-{(E)-3-[4-(2,6-Dimethyl-phenyl)-piperazin-1-yl]-3-oxo-propenyl}-pyridin-2-yl)-N-hydroxy-acrylamide hydrochloride]	1000 to 3000	≥ 3000	1000 to 3000
O=C(/C=C/c1cccc(/C=C/C(=O)N2CCC3(CC2)C(=O)NCN3c2ccccc2)n1)NO [Example 32, (E)-N-Hydroxy-3-{6-[(E)-3-oxo-3-(4-oxo-1-phenyl-1,3,8-triaza-spiro[4.5]dec-8-yl)-propenyl]-pyridin-2-yl}-acrylamide hydrochloride]	≥ 3000	≥ 3000	≥ 3000
COc1ccc(N2CCN(C(=O)/C=C/c3cccc(/C=C/C(=O)NO)n3)CC2)cc1 [Example 34, (E)-N-Hydroxy-3-(6-{(E)-3-[4-(4-methoxy-phenyl)-piperazin-1-yl]-3-oxo-propenyl}-pyridin-2-yl)-acrylamide hydrochloride]	≤ 1000	1000 to 3000	1000 to 3000
